Laboratory results: patent US20050112573A1, “Method of detecting toxic substance” (priority 2001, published 2005)

Tested on: yeast genes (level of expressed mRNA)
Test: DNA chip analysis of expressed mRNA of yeast genes after 2 h culture with a toxic chemical substance
Format: cell-based, Saccharomyces cerevisiae S288C
Procedure, shortened: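 S. cerevisiae S288C in YPD at 25 °C was exposed at log phase for 2 h to a growth-inhibiting, non-lethal concentration of the chemical. Poly(A) mRNA was reverse-transcribed with Cy3- or Cy5-dUTP and hybridized to a whole-genome yeast DNA chip (65 °C, >12 h). Values are fluorescence ratios versus untreated cells.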

In the case of `O=[N+]([O-])c1cc[n+]([O-])c2ccccc12` [(5), 4-nitroquinolin-N-oxide], the “The level of expressed mRNA in the presence of chemical substance/The level of expressed mRNA in the absence of chemical substance” value (yeast gene YAR010C) is reported as 1.0, the “The level of expressed mRNA in the presence of chemical substance/The level of expressed mRNA in the absence of chemical substance” value (yeast gene YBL005W-A) is reported as 1.3 and the “The level of expressed mRNA in the presence of chemical substance/The level of expressed mRNA in the absence of chemical substance” value (yeast gene YBL041W) is reported as 1.6. The “The level of expressed mRNA in the presence of chemical substance/The level of expressed mRNA in the absence of chemical substance” value (yeast gene YBL043W) was 1.1, the “The level of expressed mRNA in the presence of chemical substance/The level of expressed mRNA in the absence of chemical substance” value (yeast gene YBL078C) was 0.7 and the “The level of expressed mRNA in the presence of chemical substance/The level of expressed mRNA in the absence of chemical substance” value (yeast gene YBR214W) was 1.1. The “The level of expressed mRNA in the presence of chemical substance/The level of expressed mRNA in the absence of chemical substance” value (yeast gene YCL020W) was 0.5, the “The level of expressed mRNA in the presence of chemical substance/The level of expressed mRNA in the absence of chemical substance” value (yeast gene YCL027W) was 1.2 and the “The level of expressed mRNA in the presence of chemical substance/The level of expressed mRNA in the absence of chemical substance” value (yeast gene YCR004C) was 1.2. For the same molecule, the “The level of expressed mRNA in the presence of chemical substance/The level of expressed mRNA in the absence of chemical substance” value (yeast gene YCR071C) was 1.2, the “The level of expressed mRNA in the presence of chemical substance/The level of expressed mRNA in the absence of chemical substance” value (yeast gene YCR088W) was 1.1 and the “The level of expressed mRNA in the presence of chemical substance/The level of expressed mRNA in the absence of chemical substance” value (yeast gene YDL008W) was 1.8. For the same molecule, the “The level of expressed mRNA in the presence of chemical substance/The level of expressed mRNA in the absence of chemical substance” value (yeast gene YDL238C) was 0.9, the “The level of expressed mRNA in the presence of chemical substance/The level of expressed mRNA in the absence of chemical substance” value (yeast gene YDR055W) was 1.7 and the “The level of expressed mRNA in the presence of chemical substance/The level of expressed mRNA in the absence of chemical substance” value (yeast gene YDR084C) was 1.2. For the same molecule, the “The level of expressed mRNA in the presence of chemical substance/The level of expressed mRNA in the absence of chemical substance” value (yeast gene YDR085C) was 0.9, the “The level of expressed mRNA in the presence of chemical substance/The level of expressed mRNA in the absence of chemical substance” value (yeast gene YDR104C) was 1.3 and the “The level of expressed mRNA in the presence of chemical substance/The level of expressed mRNA in the absence of chemical substance” value (yeast gene YDR115W) was 1.4. For the same molecule, the “The level of expressed mRNA in the presence of chemical substance/The level of expressed mRNA in the absence of chemical substance” value (yeast gene YDR259C) was 1.0, the “The level of expressed mRNA in the presence of chemical substance/The level of expressed mRNA in the absence of chemical substance” value (yeast gene YDR315C) was 0.9 and the “The level of expressed mRNA in the presence of chemical substance/The level of expressed mRNA in the absence of chemical substance” value (yeast gene YDR358W) was 1.4. For the same molecule, the “The level of expressed mRNA in the presence of chemical substance/The level of expressed mRNA in the absence of chemical substance” value (yeast gene YDR388W) was 0.7, the “The level of expressed mRNA in the presence of chemical substance/The level of expressed mRNA in the absence of chemical substance” value (yeast gene YDR432W) was 1.6 and the “The level of expressed mRNA in the presence of chemical substance/The level of expressed mRNA in the absence of chemical substance” value (yeast gene YDR481C) was 1.0. For the same molecule, the “The level of expressed mRNA in the presence of chemical substance/The level of expressed mRNA in the absence of chemical substance” value (yeast gene YDR510W) was 0.7, the “The level of expressed mRNA in the presence of chemical substance/The level of expressed mRNA in the absence of chemical substance” value (yeast gene YEL042W) was 0.7 and the “The level of expressed mRNA in the presence of chemical substance/The level of expressed mRNA in the absence of chemical substance” value (yeast gene YEL066W) was 0.8. The “The level of expressed mRNA in the presence of chemical substance/The level of expressed mRNA in the absence of chemical substance” value (yeast gene YER039C) was 1.5, the “The level of expressed mRNA in the presence of chemical substance/The level of expressed mRNA in the absence of chemical substance” value (yeast gene YER107C) was 1.3 and the “The level of expressed mRNA in the presence of chemical substance/The level of expressed mRNA in the absence of chemical substance” value (yeast gene YER130C) was 1.7. The “The level of expressed mRNA in the presence of chemical substance/The level of expressed mRNA in the absence of chemical substance” value (yeast gene YFL028C) was 1.7, the “The level of expressed mRNA in the presence of chemical substance/The level of expressed mRNA in the absence of chemical substance” value (yeast gene YFL043C) was 1.2 and the “The level of expressed mRNA in the presence of chemical substance/The level of expressed mRNA in the absence of chemical substance” value (yeast gene YGL158W) was 1.0. For the same molecule, the “The level of expressed mRNA in the presence of chemical substance/The level of expressed mRNA in the absence of chemical substance” value (yeast gene YGL229C) was 1.0, the “The level of expressed mRNA in the presence of chemical substance/The level of expressed mRNA in the absence of chemical substance” value (yeast gene YGR136W) was 1.2 and the “The level of expressed mRNA in the presence of chemical substance/The level of expressed mRNA in the absence of chemical substance” value (yeast gene YGR189C) was 0.7. For the same molecule, the “The level of expressed mRNA in the presence of chemical substance/The level of expressed mRNA in the absence of chemical substance” value (yeast gene YGR213C) was 1.2, the “The level of expressed mRNA in the presence of chemical substance/The level of expressed mRNA in the absence of chemical substance” value (yeast gene YGR257C) was 1.3 and the “The level of expressed mRNA in the presence of chemical substance/The level of expressed mRNA in the absence of chemical substance” value (yeast gene YHR004C) was 1.5. For the same molecule, the “The level of expressed mRNA in the presence of chemical substance/The level of expressed mRNA in the absence of chemical substance” value (yeast gene YHR071W) was 1.5, the “The level of expressed mRNA in the presence of chemical substance/The level of expressed mRNA in the absence of chemical substance” value (yeast gene YHR139C) was 1.3 and the “The level of expressed mRNA in the presence of chemical substance/The level of expressed mRNA in the absence of chemical substance” value (yeast gene YHR142W) was 1.3. The “The level of expressed mRNA in the presence of chemical substance/The level of expressed mRNA in the absence of chemical substance” value (yeast gene YIL123W) was 0.6, the “The level of expressed mRNA in the presence of chemical substance/The level of expressed mRNA in the absence of chemical substance” value (yeast gene YIL140W) was 0.8 and the “The level of expressed mRNA in the presence of chemical substance/The level of expressed mRNA in the absence of chemical substance” value (yeast gene YJL073W) was 1.2. For the same molecule, the “The level of expressed mRNA in the presence of chemical substance/The level of expressed mRNA in the absence of chemical substance” value (yeast gene YJL089W) was 1.1, the “The level of expressed mRNA in the presence of chemical substance/The level of expressed mRNA in the absence of chemical substance” value (yeast gene YJL116C) was 1.3 and the “The level of expressed mRNA in the presence of chemical substance/The level of expressed mRNA in the absence of chemical substance” value (yeast gene YJR004C) was 1.1. The “The level of expressed mRNA in the presence of chemical substance/The level of expressed mRNA in the absence of chemical substance” value (yeast gene YJR086W) was 1.3 and the “The level of expressed mRNA in the presence of chemical substance/The level of expressed mRNA in the absence of chemical substance” value (yeast gene YKL008C) was 0.9.
